We go through 1 molecule from paper PMC7221111 (Drugs in R&D, 2020).

Series [1] can be described thus: Population pharmacokinetic model of vancomycin in preterm neonates. The conditions noted are these: 500 non-parametric bootstrap runs; typical individual 1.48 kg.
For series [2] the following is noted: cited from earlier work.

Where “and” joins values, the source holds several entries; their conditions need not be identical. Equal entries are not always repeated. Where two headings read alike, the source gives them in different places.

As for `CN[C@H](CC(C)C)C(=O)N[C@H]1C(=O)N[C@@H](CC(N)=O)C(=O)N[C@H]2C(=O)N[C@H]3C(=O)N[C@H](C(=O)N[C@H](C(=O)O)c4cc(O)cc(O)c4-c4cc3ccc4O)[C@H](O)c3ccc(c(Cl)c3)Oc3cc2cc(c3O[C@@H]2O[C@H](CO)[C@@H](O)[C@H](O)[C@H]2O[C@H]2C[C@](C)(N)[C@H](O)[C@H](C)O2)Oc2ccc(cc2Cl)[C@H]1O` [vancomycin], in series [1], the “CL, bootstrap median (95% CI)” value is recorded as 0.1 (0.09–0.11) L/h and the “Vd, bootstrap median (95% CI)” value is 0.86 (0.804–0.93) L. Also, in series [2], the “Clearance, range reported in a similar population of neonates” value is 0.054 to 0.07 L/h and the “Vd, range reported in a similar population of neonates” value is 0.58 to 1.19 L. The “Variation in Vd” value in series [2] (neonatal populations) is 32% and 29.4%. For the same molecule, in series [2] (neonates), the Variation in clearance is 32%. Moreover, the “Variation in Vd” value in series [2] (paediatric populations) was 43% and 77%.
